{"source": "a melting point compilation (Tetko et al.; mined from patent text by program, amines drawn as free bases though some values may be those of a salt)", "data": [{"units": {"melting point": "°C"}, "values": [{"smiles": "N#Cc1cc(O)cc2nc(-c3ccc(O)cc3)oc12", "melting point": "180 to 183"}, {"smiles": "CCCc1nc(C(=O)O)c(C(=O)O)[nH]1", "melting point": "261 to 263"}, {"smiles": "Nc1nc2cc(F)ccc2s1", "melting point": 167}, {"smiles": "COc1cc(C=O)cc2c1OC(C)(C)C2", "melting point": "58 to 59"}, {"smiles": "COc1ccc(OC)c(C(=S)N2CCOCC2)c1", "melting point": 127}, {"smiles": "Cc1cc(NCCNc2cc(C)[nH]n2)n[nH]1", "melting point": "255 to 257"}, {"smiles": "Cc1ccc(N2CC(=O)N(C)C(=O)N2)cc1", "melting point": "193 to 194"}, {"smiles": "N#CCCN1C(=O)C(O)N=C(c2ccccc2Cl)c2cc(Cl)ccc21", "note": "(stereo unspecified)", "melting point": "198 to 202"}, {"smiles": "NC(=O)c1cc([N+](=O)[O-])cc(Br)n1", "melting point": "179 to 180"}, {"smiles": "COc1ccc(-c2nc3c(N)cccc3n2Cc2c(F)cccc2F)c(F)c1", "melting point": "200 to 202"}, {"smiles": "Oc1ccccc1-c1cccnc1", "melting point": 185}, {"smiles": "O=C(NCc1c(F)cccc1F)c1[nH]c2ccc(Cl)cc2c1S(=O)(=O)c1ccccc1", "melting point": "274 to 280"}, {"smiles": "CC(C)(Oc1ccc(CCCOc2ccc(-c3ccccc3)cc2)cc1)C(=O)O", "melting point": "130 to 133"}, {"smiles": "Cn1c(=O)[nH]c2nc3ccc(OCCCC(=O)N4CCCCC4)cc3cc21", "melting point": "215 to 217"}, {"smiles": "Cn1cnnc1SC1=C(c2cc(Cl)ccc2O)C2C=C(C(F)(F)F)C=CC2NC1=O", "note": "(stereo unspecified)", "melting point": "> 310"}, {"smiles": "CC(C)n1nc(-c2sc(NC(=O)CNCCO)nc2-c2ccccc2)ccc1=O", "melting point": "142 to 144"}, {"smiles": "COc1ccc(Cn2cnc(C(=N)C#N)c2N)cc1", "melting point": "92 to 94"}, {"smiles": "Cc1ncc(C(O)=S)cc1OC(C)C", "melting point": "154 to 155"}, {"smiles": "COc1ccc(-c2oc(CCCCCc3nnn[nH]3)nc2-c2ccc(Cl)cc2)cc1", "melting point": 160}, {"smiles": "CCc1nc2c(N)nc3cc(OCCNC(=O)OC(C)(C)C)ccc3c2n1CC1CCOCC1", "melting point": "200 to 201"}, {"smiles": "COc1ccc(C2COc3ccc(-c4nnc(C)o4)cc32)cc1", "note": "(stereo unspecified)", "melting point": "117 to 118"}, {"smiles": "CC(c1ccccc1)(c1ccc(O)cc1)c1ccc(O)cc1", "melting point": "185 to 187"}, {"smiles": "CC(C)Oc1ccc2nc(COc3ccc(CC4SC(=O)NC4=O)cc3)n(C)c2n1", "note": "(stereo unspecified)", "melting point": "210 to 212"}, {"smiles": "Cc1cc(-c2cn(-c3cccc(OCCn4ccnc4)c3)c3ncnc(N)c23)cc(C)c1O", "melting point": 100}, {"smiles": "CC(C)(C)OC(=O)N1CCC(Cc2c[nH]c3ccc(F)cc23)CC1", "melting point": "144 to 145"}, {"smiles": "CC(C)(C)OC(=O)N1C[C@H](O)C[C@H]1C(N)=O", "melting point": "146 to 148"}, {"smiles": "Cn1ncc(C(=O)N2CCC2)c1C(=O)Nc1ccn2nc(-c3cccc(F)c3)nc2c1", "melting point": "232 to 236"}, {"smiles": "COC1=CC(=O)c2cc(O)ccc2C1=O", "melting point": "264 to 267"}, {"smiles": "Cc1ccc(N(c2ccc(-c3ccccc3)cc2)c2ccc(C)c(C)c2)cc1", "melting point": "128 to 130"}, {"smiles": "CCOc1ccc2c(c1)n(C1CCCCC1)c(=O)n2S(=O)(=O)c1ccc(NC(=O)NC(C)(C)C)cc1OC", "melting point": 237}, {"smiles": "CC1COCc2nc3c(N)nc4cc(C=CC(=O)N5CCOCC5)ccc4c3n21", "note": "(stereo unspecified)", "melting point": "> 250"}, {"smiles": "O=C(c1cccnc1)c1cnc2c(cnn2Cc2ccco2)c1O", "melting point": "152 to 153"}, {"smiles": "Brc1csc(-c2cn([C@H]3CN4CCC3CC4)nn2)c1", "melting point": 106}, {"smiles": "Nc1c2c(nc3cc(Cl)ccc13)CCCC2=O", "melting point": "285 to 287"}, {"smiles": "Cc1ccc(-c2ccc3c(c2)C=C(C(=O)Nc2ccc(CSc4ccccc4)cc2)CCO3)cc1", "melting point": "176 to 177"}, {"smiles": "Nc1cc(Oc2ccc3c(C(=O)Nc4ccc(F)c(C5CC5)c4)cccc3c2)ncn1", "melting point": "256 to 257"}, {"smiles": "COc1ccc(CC(=O)NOCc2ccccc2)cc1", "melting point": "98 to 99"}, {"smiles": "Clc1ccc(Nc2nnc(Cc3ccncn3)c3ccccc23)cc1", "melting point": "174 to 176"}, {"smiles": "COCC#Cc1ncn2c1CN(C)C(=O)c1c(Cl)cccc1-2", "melting point": "154 to 156"}, {"smiles": "CCCCCCCCCCCCSC(CCC)C(=O)Nc1cc(C)c(O)c(C)c1C", "note": "(stereo unspecified)", "melting point": 116}, {"smiles": "CCCC1CCC2(C)C(=CCC3C4CCC(=O)C4(C)CCC32)C1", "note": "(stereo unspecified)", "melting point": "103 to 105"}, {"smiles": "COc1cc2c(cc1OC)CN(CC(O)COc1ccc(N)cc1)CC2", "note": "(stereo unspecified)", "melting point": 106}, {"smiles": "COC(=O)CC1OC(=O)c2ccccc21", "note": "(stereo unspecified)", "melting point": "62 to 63"}, {"smiles": "O=Cc1ccc(F)c(OCc2ccccc2)c1", "melting point": "68 to 69"}, {"smiles": "CNC(=O)C(N)Cc1ccc2ccccc2c1", "note": "(stereo unspecified)", "melting point": "127 to 128"}, {"smiles": "CCN(CCc1c[nH]c2ccccc12)C(=O)CCCC(=O)OC", "melting point": "73 to 75"}, {"smiles": "FC(F)(F)c1cccc(Nc2nc(Cl)nc3nc[nH]c23)c1", "melting point": "248 to 250"}, {"smiles": "Cc1c(-c2ccccc2)oc2c(C(=O)O)cccc12", "melting point": "220 to 222"}, {"smiles": "COc1ccc2c(c1OC)CCCC2(O)CN", "note": "(stereo unspecified)", "melting point": "138 to 140"}, {"smiles": "CS(=O)(=O)OCc1cc(-c2ccc3c(c2)CCO3)nn(CC=Cc2ccc(Cl)cc2)c1=O", "melting point": "135 to 140"}, {"smiles": "Cc1ccc(N)c(C(=O)c2ccc(F)cc2)c1", "melting point": "70 to 71.5"}]}]}
